Reference: ChEMBL document CHEMBL4483862, “Open-source discovery of chemical leads for next-generation chemoprotective antimalarials” (2018)

Tested on: Plasmodium berghei
Assay: Luciferase/luciferin-expressing antifolate-resistant parasites were used to infect a culture of HepG2 cells that were pre-incubated with compounds. Infected hepatocytes emit light due to the luciferase reaction. Assay results are presented as the percent inhibition of light emission compared to control. […]
Format: functional
Conditions: sporozoite; for IC90: read-out: LUCIFERASE INFECTION ASSAY - IC90
[1] = read-out: LUCIFERASE INFECTION ASSAY - IC50

CCN(c1ccccc1)S(=O)(=O)c1ccc(Cl)c(C(=O)Nc2ccn(C)n2)c1
IC50 [1]: > 10 µM | IC90: > 10 µM

O=C(c1ccco1)N1CCN(c2ncnc3c2[nH]c2ccc(F)cc23)CC1
IC50 (HEPG2TOX_HILL_SLOPE 1.18, HEPG2TOX_R_SQUARED 0.668, PBLUC_HILL_SLOPE 1.45, PBLUC_R_SQUARED 0.295, read-out: LUCIFERASE INFECTION ASSAY - IC50): > 9.03 µM | IC90: > 9.03 µM

O=C(NNC(=O)c1ccccc1F)c1ccc(N2CCCC2=O)cc1
IC50 [1]: > 10 µM | IC90: > 10 µM

COc1cccc(NC(=O)c2csc(C(O)c3cccc(C(F)(F)F)c3)n2)c1 (stereo not drawn)
IC50 [1]: > 10 µM | IC90: > 10 µM

CCn1c2ccccc2c2cc(NC(=O)COC(=O)CC3CCCC3)ccc21
IC50 (PBLUC_HILL_SLOPE 3.89, PBLUC_R_SQUARED 0.506, read-out: LUCIFERASE INFECTION ASSAY - IC50): 5.17 µM | IC90: 9.1 µM

CC(=O)c1ccc(-c2ccc(C(=O)Nc3nc(-c4ccccn4)cs3)o2)cc1
IC50 (HEPG2TOX_HILL_SLOPE 2.67, HEPG2TOX_R_SQUARED 0.908, PBLUC_HILL_SLOPE 30.3, PBLUC_R_SQUARED 0.327, read-out: LUCIFERASE INFECTION ASSAY - IC50): 6.78 µM | IC90: 7.29 µM

CCOCc1c(C(=O)Nc2ccccc2N2CCN(C)CC2)oc2ccccc12
IC50 (PBLUC_HILL_SLOPE 0.969, 2.85, PBLUC_R_SQUARED 0.516, 0.696, read-out: LUCIFERASE INFECTION ASSAY - IC50): 2.83 µM | IC90: 7.05 µM

CC(C)CNc1nn2c(-c3ccc(O)cc3)cnc2s1
IC50 [1]: > 11.4 µM | IC90: > 11.4 µM

Cc1cccc(Cn2nc(C(C)(C)C)cc2-c2nnc(SCC(=O)c3ccc(Cl)cc3)o2)c1
IC50 (FFLUC_HILL_SLOPE 7.72, FFLUC_R_SQUARED 0.435, PBLUC_HILL_SLOPE 3.63, PBLUC_R_SQUARED 0.42, read-out: LUCIFERASE INFECTION ASSAY - IC50): 6.23 µM | IC90: > 6.86 µM

CSc1nn(-c2ccc(C(=O)OCc3c(C)cc(C(C)(C)C)cc3C)cc2)c(=S)s1
IC50 [1]: > 10 µM | IC90: > 10 µM

Fc1cccc(-c2cc3c(Nc4ccccn4)nccc3[nH]2)c1
IC50 (HEPG2TOX_HILL_SLOPE 13.8, HEPG2TOX_R_SQUARED 0.872, PBLUC_HILL_SLOPE 30.4, PBLUC_R_SQUARED 0.0497, read-out: LUCIFERASE INFECTION ASSAY - IC50): 8.5 µM | IC90: 9.13 µM

COc1ccccc1-n1c(SCC(=O)NNC(=O)c2ccc([N+](=O)[O-])cc2)nc2ccccc2c1=O
IC50 (FFLUC_HILL_SLOPE 2.82, FFLUC_R_SQUARED 0.966, read-out: LUCIFERASE INFECTION ASSAY - IC50): > 10 µM | IC90: > 10 µM

COc1ccc(-c2cnc3cnc(-c4ccc5c(ccn5C)c4)cn23)cn1
IC50 (HEPG2TOX_HILL_SLOPE 1.17, HEPG2TOX_R_SQUARED 0.992, PBLUC_HILL_SLOPE 12.5, PBLUC_R_SQUARED 0.775, read-out: LUCIFERASE INFECTION ASSAY - IC50): 1.02 µM | IC90: 1.22 µM

COc1ccc(-c2cnc3cnc(-c4ccc(C(=O)NC5CC5)cc4)cn23)cn1
IC50 (PBLUC_HILL_SLOPE 21.9, PBLUC_R_SQUARED 0.538, read-out: LUCIFERASE INFECTION ASSAY - IC50): 7.8 µM | IC90: > 8.56 µM

O=C(Nc1ccnn1Cc1ccc(Cl)cc1Cl)c1cccc(NC(=O)c2cccs2)c1
IC50 (HEPG2TOX_HILL_SLOPE 6.41, HEPG2TOX_R_SQUARED 0.384, PBLUC_HILL_SLOPE 10.4, PBLUC_R_SQUARED 0.292, read-out: LUCIFERASE INFECTION ASSAY - IC50): 8.61 µM | IC90: > 10 µM

Cn1cc(-c2cn3c(-c4ccc(C#N)cc4)cnc3cn2)cn1
IC50 (PBLUC_HILL_SLOPE 4.44, PBLUC_R_SQUARED 0.515, read-out: LUCIFERASE INFECTION ASSAY - IC50): 9.55 µM | IC90: > 11 µM

Cc1ccsc1/C=N/Nc1ncc(Cl)cc1Cl
IC50 (FFLUC_HILL_SLOPE 11.7, FFLUC_R_SQUARED 0.18, PBLUC_HILL_SLOPE 22.2, PBLUC_R_SQUARED 0.267, read-out: LUCIFERASE INFECTION ASSAY - IC50): 9.19 µM | IC90: > 10 µM

CC(=O)c1cccc(-c2cnc3cnc(-c4ccc(CNc5ccccc5)cc4)cn23)c1
IC50 (FFLUC_HILL_SLOPE 9.2, FFLUC_R_SQUARED 0.0159, PBLUC_HILL_SLOPE 3.04, PBLUC_R_SQUARED 0.57, read-out: LUCIFERASE INFECTION ASSAY - IC50): 4.89 µM | IC90: > 7.89 µM

COc1cc(-c2ccc3ncc(-c4cccc(NC(C)=O)c4)n3n2)cc(OC)c1OC
IC50 (HEPG2TOX_HILL_SLOPE 0.736, HEPG2TOX_R_SQUARED 0.983, PBLUC_HILL_SLOPE 1.49, PBLUC_R_SQUARED 0.582, read-out: LUCIFERASE INFECTION ASSAY - IC50): 0.995 µM | IC90: 4.34 µM

Cc1c(C)n(CCN(C)C)c2ncn3nc(-c4ccccc4O)nc3c12
IC50 (PBLUC_HILL_SLOPE 1.46, PBLUC_R_SQUARED 0.808, read-out: LUCIFERASE INFECTION ASSAY - IC50): 2.21 µM | IC90: > 9.42 µM

O=C(Nc1ccccc1)N1CCc2nc(NCc3cccc(Oc4ccccc4)c3)ncc2C1
IC50 (HEPG2TOX_HILL_SLOPE 4.26, HEPG2TOX_R_SQUARED 0.801, PBLUC_HILL_SLOPE 11.5, PBLUC_R_SQUARED 0.365, read-out: LUCIFERASE INFECTION ASSAY - IC50): 2.6 µM | IC90: 3.15 µM

O=C(Nc1ncccc1O)c1ccc(CN2C(=O)c3ccccc3S2(=O)=O)cc1
IC50 (PBLUC_HILL_SLOPE 1.72, 0.775, PBLUC_R_SQUARED 0.614, 0.500, read-out: LUCIFERASE INFECTION ASSAY - IC50): 4.22 µM | IC90: > 10 µM

Cc1c(NC(=O)c2c(F)cccc2F)cc2c(c1[N+](=O)[O-])C(C)(C)CC2(C)C
IC50 (PBLUC_HILL_SLOPE 39, PBLUC_R_SQUARED 0.724, read-out: LUCIFERASE INFECTION ASSAY - IC50): > 8.5 µM | IC90: > 8.5 µM

CC1CCN(CCOc2ccc(-c3n[nH]cc3-c3ccccc3)c(O)c2)CC1
IC50 (PBLUC_HILL_SLOPE 1.57, PBLUC_R_SQUARED 0.734, read-out: LUCIFERASE INFECTION ASSAY - IC50): > 8.74 µM | IC90: > 8.74 µM

CC(C)c1noc(CN2CCN(c3ncnc4sc(-c5ccccc5)cc34)CC2)n1
IC50 (HEPG2TOX_HILL_SLOPE 1.77, HEPG2TOX_R_SQUARED 0.986, PBLUC_HILL_SLOPE 2.11, PBLUC_R_SQUARED 0.835, read-out: LUCIFERASE INFECTION ASSAY - IC50): 2.37 µM | IC90: 6.72 µM

CCc1nnc(SCc2cc(=O)n3c(C)csc3n2)[nH]1
IC50 (FFLUC_HILL_SLOPE 120, FFLUC_R_SQUARED 0.18, read-out: LUCIFERASE INFECTION ASSAY - IC50): > 10 µM | IC90: > 10 µM

CCCCNC(=O)CN1CCN(C(=O)Cc2c(C)nc3ccccc3c2C)CC1
IC50 [1]: > 10 µM | IC90: > 10 µM

Clc1ccc2nc(-c3cnn(-c4ccccc4)c3)[nH]c2c1
IC50 (HEPG2TOX_HILL_SLOPE 1.09, HEPG2TOX_R_SQUARED 0.847, PBLUC_HILL_SLOPE 23.0, 2.49, PBLUC_R_SQUARED 0.431, 0.566, read-out: LUCIFERASE INFECTION ASSAY - IC50): 5.39 µM | IC90: 7.38 µM

Cc1cc(NCc2cccnc2)n2nc(C(F)(F)F)c(-c3ccccc3)c2n1
IC50 [1]: 7.83 µM | IC90: > 8.61 µM

Cc1c(C(=O)OC(C(=O)c2ccccc2)c2ccccc2)sc2ncn(C)c(=O)c12 (stereo not drawn)
IC50 (PBLUC_HILL_SLOPE 24.2, PBLUC_R_SQUARED 0.462, read-out: LUCIFERASE INFECTION ASSAY - IC50): 7.93 µM | IC90: 8.68 µM

N=C(NS(=O)(=O)c1ccc(Cl)c(Cl)c1)c1ccc(Cl)cc1
IC50 [1]: > 9.07 µM | IC90: > 9.07 µM

Cn1ccc2cc(-c3cnc4cnc(-c5ccccc5)cn34)ccc21
IC50 (HEPG2TOX_HILL_SLOPE 1.21, HEPG2TOX_R_SQUARED 0.923, PBLUC_HILL_SLOPE 1.33, PBLUC_R_SQUARED 0.803, read-out: LUCIFERASE INFECTION ASSAY - IC50): 0.0465 µM | IC90: 0.242 µM

CCOC(=O)C1=C(NC(=O)Nc2ccc(Cl)c(Cl)c2)Nc2ccccc2N=C1CC
IC50 [1]: > 10 µM | IC90: > 10 µM

COc1ccc(-c2cc(C3(CNCc4ccc(N(C)C)cc4)CC3)ccn2)cn1
IC50 [1]: > 10 µM | IC90: > 10 µM

Oc1ccc(-c2cn3c(-c4ccsc4)cnc3cn2)cc1
IC50 [1]: 10.6 µM | IC90: > 11.2 µM

O=S(=O)(c1ccc(C2=NNC(=NC3CC3)SC2)cc1)N1CCCCC1
IC50 [1]: > 10 µM | IC90: > 10 µM

O=C(Nc1ccc2c(c1)nc1n2CCCCC1)C1CC=CCC1 (stereo not drawn)
IC50 [1]: > 10 µM | IC90: > 10 µM

O=C(CSc1nnc(-c2ccncc2)[nH]1)N1N=C(c2cccs2)CC1c1cccs1 (stereo not drawn)
IC50 (HEPG2TOX_HILL_SLOPE 0.148, HEPG2TOX_R_SQUARED 0.0376, read-out: LUCIFERASE INFECTION ASSAY - IC50): > 10 µM | IC90: > 10 µM

CC(Nc1ccc(OC(F)(F)F)cc1)C(=O)Nc1ccc(C#N)c(Cl)c1 (stereo not drawn)
IC50 [1]: 8.9 µM | IC90: > 10 µM

O=C(Nc1nc2ccccn2c1C(=O)NC1CCCC1)c1ccc(Cl)cc1Cl
IC50 (HEPG2TOX_HILL_SLOPE 1.22, HEPG2TOX_R_SQUARED 0.989, PBLUC_HILL_SLOPE 22.2, PBLUC_R_SQUARED 0.579, read-out: LUCIFERASE INFECTION ASSAY - IC50): 2.41 µM | IC90: 2.66 µM

Cn1ccnc1SCC(=O)Nc1ccc(C(=O)Nc2ncccc2O)cc1
IC50 (PBLUC_HILL_SLOPE 5, PBLUC_R_SQUARED 0.401, read-out: LUCIFERASE INFECTION ASSAY - IC50): 3.28 µM | IC90: 5.1 µM

O=c1c2ccccc2sc2nc(-c3ccccc3)n(Cc3ccccc3)c(=O)c12
IC50 [1]: > 8.32 µM | IC90: > 8.32 µM

CNc1nc2cnc(Nc3cccc(C(C)=O)c3)cc2n1-c1cccc(F)c1
IC50 [1]: > 10 µM | IC90: > 10 µM

CC(C)(C)c1ccc(C(=O)Nc2ncccc2O)cc1
IC50 (FFLUC_HILL_SLOPE 1.42, FFLUC_R_SQUARED 0.79, PBLUC_HILL_SLOPE 0.554, PBLUC_R_SQUARED 0.72, read-out: LUCIFERASE INFECTION ASSAY - IC50): 0.0122 µM | IC90: 0.647 µM
